The source of these data is patent US9303019B2, “Amino-pyrroline derivatives, and use thereof in the prevention and/or treatment of metabolic syndrome” (UNIVERSITE DE STRASBOURG, priority 2012, dated 2016).

Where a name gives a salt, the structure may show the parent alone.

One data set deals with 3T3-L1 adipocytes. The experiment in a line: Secretion of adiponectin by differentiated 3T3-L1 adipocytes (ELISA). Type of data set: cell-based, murine. The method, then:
3T3-L1 murine preadipocytes were cultured to confluence at 37° C. in DMEM medium containing 4.5 g/litre of D-glucose, 10% FCS and antibiotics. At confluence, differentiation of the 3T3-L1 adipocytes was initiated through the addition over 48 h of a mixture containing 100 μM methyl-isobutylxanthine, 100 nm dexamethasone and 175 nM insulin. The cells were then passaged every 2-3 days in DMEM, 10% FCS and 175 nM insulin. More than 95% of cells had the phenotype of mature adipocytes 10 days after confluence was reached.
To determine the secretion of adiponectin by mature adipocytes, differentiated 3T3-L1 adipocytes (10 days after confluence) were placed in culture in 12-well plates and washed three times with DMEM, then cultured for 6 h in DMEM alone, in the absence or presence of 3 μM of compound 1. In some wells the antagonist selective for the imidazoline receptors I1, efaroxan, was added (100 μM) 30 min before exposure to compound 1.
The culture medium was then recovered, centrifuged for 3 min at 10 000 g to remove cell contaminants, and the supernatant was stored at −80° C. until use. After two washings in cold PBS, the adipocytes were collected in PBS, homogenized and stored at −80° C. An aliquot of adipocyte homogenate was stored for protein determination. The adiponectin was measured using an ELISA kit following the manufacturer's recommendations. The adiponectin concentration was normalized with the cell protein content.

Data set [1] has as its target I1 receptor (Mus musculus, UniProt Q80TM9). In words: Competitive binding to [125I]-PIC in membranes of 3T3 adipocytes. Details: species or system murine. As to conditions: 3T3 cell membranes.
Experimental: The adipocytes were washed twice with ice-cold PBS, harvested and homogenized in 25 mM Tris-HCl buffer, pH 7.5, 1 mM EDTA. The homogenates were centrifuged at 20,000×g for 15 min at 4° C. and the supernatant stored at −80° C. until use. The residues were re-suspended in 25 mM Tris-HCl buffer, pH 7.5, 1 mM EDTA and stored at −80° C. […]
The reaction was halted by rapid vacuum filtration through GF/B fibre glass filters treated with 0.3% PEI using filtering equipment of Brandel® type, followed by three rapid washings of the filters using 3 ml of ice-cold 50 mM Tris-HCl buffer, pH 7.4. The radioactivity retained on the dried filters was determined using a Minaxi gamma counter (Packard, Meriden, CT, USA). Non-specific binding was determined by [^125I]PIC binding in the presence of 10 μM PIC and represented about 43% of total radioactivity.
Another data set has as its system α2-adrenergic receptors. In words: Binding assay of the α2-adrenergic receptors on CHO cell membranes with [3H]RX821002. On the set-up: species or system human. As to conditions: CHO cells. The method, then:
These membranes (30 μg proteins/ml for CHO-hα2A and CHO-hα2B, 100 μg protein/ml for CHO-hα2C) were incubated for 60 min at ambient temperature in binding buffer (33 mM Tris-HCl, 1 mM EDTA, pH 7.5) in a final volume of 500 μL containing 0.8 or 1 or 2 nM [^3H]RX821002 respectively for the adrenergic receptors hα2A, hα2B and hα2C.
Incubation was halted by rapid vacuum filtration through GF/C glass fibre filters followed by three successive washings in ice-cold binding buffer.
Non-specific binding was determined using 10 μM phentolamine.
(§1) The competitive assays were analyzed by non-linear regression using the GraphPad programme.
(§2) Ki values were determined using the method described by Cheng and Prussof (Cheng, Y. C.; Prusoff, W. H. Relationship between the Inhibition Constant (Ki) and the Concentration of Inhibitor which causes 50 percent Inhibition (I50) of an Enzymatic Reaction. Biochem. Pharmacol. 1973, 22, 3099-3108).

In data set [2] the target is I1 receptor (Homo sapiens, UniProt Q9Y2I1). The experiment in a line: Specific binding assay of the I1 receptor on human platelets with [125I]LNP 911. The method, then:
Binding assays were performed at 37° C. using [^125I]LNP 911 as radioligand following the general procedure described but adapted to washed whole platelets (Greney, H.; Urosevic, D.; Schann, S.; Dupuy, L.; Bruban, V.; Ehrhardt, J,-D.; Bousquet, P.; Dontenwill, M. [^125I]2-(2-Chloro-4-iodo-phenylamino)-5-methyl-pyrroline (LNP911), a High-Affinity Radioligand Selective for I1 Imidazoline Receptors. Mol. Pharmacol. 2002, 62, 181-191).
Incubation was initiated through the addition of 900 to 950 μl of platelet suspension at a concentration of 500000/μl in a final volume of 1 ml Tyrode albumin and was performed at 37° C. for 5 min (equilibrium conditions). The competitive assays were conducted using a single concentration of radioligand ([…], 200 000 cpm), in the presence of increasing concentrations of suitable non-labelled ligand. Non-specific binding was determined by the binding of [^125I]LNP 911 in the presence of 100 nM of non-labelled LNP 911 and represented about 10% of total radioactivity when […] of [^125I]LNP 911 were used.
The reaction was halted by rapid vacuum filtration through GF/C fibre glass filters followed by five rapid washings of the filters with 3 ml of ice-cold Tyrode ([…], pH 7.35). Radioactivity was measured using a gamma counter (Wallac 1410).
as §1, §2

Sequence of I1 receptor (Homo sapiens, UniProt Q9Y2I1) (Q9Y2I1 2-1504 limits assumed): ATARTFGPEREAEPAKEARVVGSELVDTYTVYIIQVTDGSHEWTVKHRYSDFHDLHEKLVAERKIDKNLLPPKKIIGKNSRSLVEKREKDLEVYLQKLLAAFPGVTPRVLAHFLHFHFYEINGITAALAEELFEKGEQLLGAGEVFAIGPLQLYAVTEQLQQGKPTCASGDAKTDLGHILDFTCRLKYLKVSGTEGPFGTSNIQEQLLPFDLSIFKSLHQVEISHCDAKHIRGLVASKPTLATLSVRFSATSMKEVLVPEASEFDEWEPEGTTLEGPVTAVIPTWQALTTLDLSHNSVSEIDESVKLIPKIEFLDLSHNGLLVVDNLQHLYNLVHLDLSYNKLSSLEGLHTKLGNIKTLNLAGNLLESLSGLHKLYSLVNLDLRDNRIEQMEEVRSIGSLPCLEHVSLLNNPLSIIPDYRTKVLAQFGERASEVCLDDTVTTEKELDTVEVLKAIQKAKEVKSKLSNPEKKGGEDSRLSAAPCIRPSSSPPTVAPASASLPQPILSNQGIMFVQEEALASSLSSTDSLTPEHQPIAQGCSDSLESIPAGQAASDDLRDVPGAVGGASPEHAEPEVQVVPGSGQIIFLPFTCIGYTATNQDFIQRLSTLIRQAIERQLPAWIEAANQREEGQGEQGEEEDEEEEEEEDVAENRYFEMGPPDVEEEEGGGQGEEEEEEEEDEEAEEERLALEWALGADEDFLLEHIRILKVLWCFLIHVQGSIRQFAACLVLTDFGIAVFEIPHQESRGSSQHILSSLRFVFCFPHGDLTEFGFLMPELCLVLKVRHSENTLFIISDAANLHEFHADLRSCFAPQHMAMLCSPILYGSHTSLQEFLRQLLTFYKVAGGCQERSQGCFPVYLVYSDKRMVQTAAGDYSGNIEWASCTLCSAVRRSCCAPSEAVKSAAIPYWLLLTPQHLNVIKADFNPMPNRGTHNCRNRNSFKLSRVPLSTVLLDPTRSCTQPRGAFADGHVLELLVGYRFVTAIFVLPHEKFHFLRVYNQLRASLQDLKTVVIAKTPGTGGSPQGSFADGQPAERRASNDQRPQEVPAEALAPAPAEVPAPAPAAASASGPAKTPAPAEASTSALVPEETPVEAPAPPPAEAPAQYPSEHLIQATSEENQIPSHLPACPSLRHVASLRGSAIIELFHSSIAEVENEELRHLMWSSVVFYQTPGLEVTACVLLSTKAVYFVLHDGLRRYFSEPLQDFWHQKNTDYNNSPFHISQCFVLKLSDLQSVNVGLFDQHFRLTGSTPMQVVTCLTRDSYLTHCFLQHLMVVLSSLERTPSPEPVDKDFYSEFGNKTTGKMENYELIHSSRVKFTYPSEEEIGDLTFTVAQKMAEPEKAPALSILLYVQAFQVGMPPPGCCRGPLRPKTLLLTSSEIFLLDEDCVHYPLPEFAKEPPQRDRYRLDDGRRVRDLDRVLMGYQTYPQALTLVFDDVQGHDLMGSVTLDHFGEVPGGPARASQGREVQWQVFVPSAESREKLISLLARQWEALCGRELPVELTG
Sequence of I1 receptor (Mus musculus, UniProt Q80TM9) (Q80TM9 whole entry, looked up): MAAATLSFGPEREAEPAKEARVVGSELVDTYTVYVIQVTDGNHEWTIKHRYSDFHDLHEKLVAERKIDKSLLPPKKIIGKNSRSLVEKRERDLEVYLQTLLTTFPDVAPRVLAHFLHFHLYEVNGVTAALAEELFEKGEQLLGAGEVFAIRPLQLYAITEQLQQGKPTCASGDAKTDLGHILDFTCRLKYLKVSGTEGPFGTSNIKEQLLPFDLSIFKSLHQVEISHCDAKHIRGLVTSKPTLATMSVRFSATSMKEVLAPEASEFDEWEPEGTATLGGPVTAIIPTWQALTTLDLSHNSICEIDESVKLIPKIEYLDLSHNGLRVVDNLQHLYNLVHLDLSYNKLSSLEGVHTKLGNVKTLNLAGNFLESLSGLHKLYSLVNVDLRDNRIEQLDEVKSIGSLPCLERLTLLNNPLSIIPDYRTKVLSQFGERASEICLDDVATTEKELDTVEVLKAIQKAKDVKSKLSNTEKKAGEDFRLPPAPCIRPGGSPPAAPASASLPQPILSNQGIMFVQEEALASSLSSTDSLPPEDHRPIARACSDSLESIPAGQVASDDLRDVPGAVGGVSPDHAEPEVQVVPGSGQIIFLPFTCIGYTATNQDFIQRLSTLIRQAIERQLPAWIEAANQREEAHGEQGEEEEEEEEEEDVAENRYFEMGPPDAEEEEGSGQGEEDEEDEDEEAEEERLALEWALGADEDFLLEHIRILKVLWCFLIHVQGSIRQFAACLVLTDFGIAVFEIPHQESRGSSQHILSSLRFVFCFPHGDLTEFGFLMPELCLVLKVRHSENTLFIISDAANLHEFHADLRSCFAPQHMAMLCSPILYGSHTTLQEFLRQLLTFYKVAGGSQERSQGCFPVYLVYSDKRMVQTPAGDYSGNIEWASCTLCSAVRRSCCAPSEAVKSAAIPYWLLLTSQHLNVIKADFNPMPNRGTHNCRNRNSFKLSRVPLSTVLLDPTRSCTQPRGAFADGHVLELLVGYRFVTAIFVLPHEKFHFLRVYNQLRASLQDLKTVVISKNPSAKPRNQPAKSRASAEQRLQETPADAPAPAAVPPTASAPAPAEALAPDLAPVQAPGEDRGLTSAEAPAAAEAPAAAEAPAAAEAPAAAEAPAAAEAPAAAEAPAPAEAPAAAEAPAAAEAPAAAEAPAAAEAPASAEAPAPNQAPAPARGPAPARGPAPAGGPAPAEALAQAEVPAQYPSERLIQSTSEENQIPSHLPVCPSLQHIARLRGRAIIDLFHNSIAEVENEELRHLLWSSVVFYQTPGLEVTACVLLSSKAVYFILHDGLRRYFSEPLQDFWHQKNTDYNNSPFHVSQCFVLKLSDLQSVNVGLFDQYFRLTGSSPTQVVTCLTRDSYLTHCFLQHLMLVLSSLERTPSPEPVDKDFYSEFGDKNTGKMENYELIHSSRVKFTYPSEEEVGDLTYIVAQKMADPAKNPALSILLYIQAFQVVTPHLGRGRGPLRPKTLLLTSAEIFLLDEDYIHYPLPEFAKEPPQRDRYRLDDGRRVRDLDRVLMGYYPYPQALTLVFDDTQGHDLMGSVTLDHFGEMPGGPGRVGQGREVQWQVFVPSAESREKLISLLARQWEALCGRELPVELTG

`CCC1(C2=NCCN2)Cc2ccccc2O1` (stereo not drawn) [efaroxan]: the “secretion of adiponectin, efaroxan alone” value with 3T3-L1 adipocytes (100 μmol/l, control 212.6±19.1) was 175.2±15.5 ng/ml/mg of proteins. In the data set with 3T3-L1 adipocytes (efaroxan 100 μmol/l 30 min before compound 1 3 μmol/l, vs. 378±38 with compound 1 alone), the “secretion of adiponectin, pre-incubation with efaroxan before compound 1” value is 236±19.2 ng/ml/mg of proteins. Regarding `Clc1cccc(Cl)c1N=C1NCCN1` [clonidine], the “share of total sites with high affinity” value on I1 receptor [1] is reported as 57%. Turning to `Cc1ccc(NC2=NCC(C)C2)c2c1CCC2` (stereo not drawn) [Compound 9, (7-Methyl-indan-4-yl)-(4-methyl-4,5-dihydro-3H-pyrrol-2-yl)-amine hydrochloride], the Ki with α2-adrenergic receptors is more than 10000 nM.

Regarding `CC1CCC(Nc2ccc(Cl)c3c2CCC3)=N1` (stereo not drawn) [Compound 20, (7-Chloro-indan-4-yl)-(5-methyl-4,5-dihydro-3H-pyrrol-2-yl)-amine hydrochloride], the Ki at I1 receptor [2] is 2.8 nM; in the data set with α2-adrenergic receptors, more than 10000 nM. In the case of `CC1CN=C(Nc2ccc(Cl)c3c2CCC3)C1` (stereo not drawn) [Compound 8, (7-Chloro-indan-4-yl)-(4-methyl-4,5-dihydro-3H-pyrrol-2-yl)-amine hydrochloride], the Ki at I1 receptor [2] was 0.22 nM; with α2-adrenergic receptors it was more than 10000 nM. Molecule `CC1CCC(Nc2ccccc2Cl)=N1.Cl` (stereo not drawn) [Compound 13, (2-Chlorophenyl)-(5-methyl-4,5-dihydro-3H-pyrrol-2-yl)-amine hydrochloride] returned a melting point of 173 to 174 °C. In addition, the Ki in the data set on α2-adrenergic receptors is more than 10000 nM. Regarding `CC1CCC(Nc2cccc3c2CCC3)=N1` (stereo not drawn) [Compound 5, Indan-4-yl-(5-methyl-4,5-dihydro-3H-pyrrol-2-yl)-amine hydrochloride], the Ki at I1 receptor [2] was 19 nM; with α2-adrenergic receptors, more than 10000 nM.

As a reminder, the Ki is the dissociation constant of the complex between target and ligand, obtained from inhibition or displacement. Read a high Ki as lower affinity. For orientation: melting point means the temperature of the solid-liquid transition.
